Reference: PMC4835225 (Chembiochem : a European journal of chemical biology, 2015)

Target: hENO1 (Homo sapiens, UniProt P06733)
Test: isothermal titration calorimetry
Type: binding
Conditions: stoichiometry 1.4-1.6 molecules of 1 per hENO1

Sequence of hENO1 (P06733 2-434): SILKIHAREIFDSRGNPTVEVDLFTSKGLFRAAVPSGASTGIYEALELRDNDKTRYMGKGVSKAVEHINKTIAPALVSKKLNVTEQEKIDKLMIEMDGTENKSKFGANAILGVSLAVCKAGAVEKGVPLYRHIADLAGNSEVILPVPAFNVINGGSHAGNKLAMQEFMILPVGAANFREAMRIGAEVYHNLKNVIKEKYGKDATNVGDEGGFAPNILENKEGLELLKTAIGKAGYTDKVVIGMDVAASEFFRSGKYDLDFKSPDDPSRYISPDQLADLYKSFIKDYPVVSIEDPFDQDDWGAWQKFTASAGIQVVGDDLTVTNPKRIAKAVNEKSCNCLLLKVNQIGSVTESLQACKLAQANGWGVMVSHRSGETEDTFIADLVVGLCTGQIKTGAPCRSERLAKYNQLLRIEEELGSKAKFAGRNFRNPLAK

`O=C1c2c(cc(O)c([C@@H]3CCc4cc(Cl)c(Cl)n43)c2O)-c2cc(Cl)c(Cl)n21` [compound 1, (-)-chlorizidine A] gave a Kd of 1900 ± 900 nM.
